What was measured:
Type in all cases: functional
TK-10 = assay: Cytotoxicity against human TK10 cells assessed as growth inhibition at 10 uM; settings: read-out: GI
ACHN = assay: Cytotoxicity against human ACHN cells assessed as growth inhibition at 10 uM; settings: read-out: GI
[1] = Cytotoxicity against human OVCAR8 cells assessed as growth inhibition at 10 uM; settings: OVCAR-8, read-out: GI
COLO 205 = assay: Cytotoxicity against human COLO205 cells assessed as growth inhibition at 10 uM; settings: read-out: GI
BT-549 = assay: Cytotoxicity against human BT549 cells assessed as growth inhibition at 10 uM; settings: read-out: GI
HCC 2998 = assay: Cytotoxicity against human HCC2998 cells assessed as growth inhibition at 10 uM; settings: read-out: GI
M14 = assay: Cytotoxicity against human M14 cells assessed as growth inhibition at 10 uM; settings: read-out: GI
HCT-116 = assay: Cytotoxicity against human HCT116 cells assessed as growth inhibition at 10 uM; settings: read-out: GI
IGROV-1 = assay: Cytotoxicity against human IGROV1 cells assessed as growth inhibition at 10 uM; settings: read-out: GI
SK-MEL-5 = assay: Cytotoxicity against human SK-MEL-5 cells assessed as growth inhibition at 10 uM; settings: read-out: GI
MDA-MB-468 = assay: Cytotoxicity against human MDA-MB-468 cells assessed as growth inhibition at 10 uM; settings: read-out: GI
U-251 = assay: Cytotoxicity against human U251 cells assessed as growth inhibition at 10 uM; settings: read-out: GI
NCI-H23 = assay: Cytotoxicity against human NCI-H23 cells assessed as growth inhibition at 10 uM; settings: read-out: GI
SF-268 = assay: Cytotoxicity against human SF268 cells assessed as growth inhibition at 10 uM; settings: read-out: GI
MOLT-4 = assay: Cytotoxicity against human MOLT4 cells assessed as growth inhibition at 10 uM; settings: read-out: GI
HT-29 = assay: Cytotoxicity against human HT-29 cells assessed as growth inhibition at 10 uM; settings: read-out: GI
[2] = Cytotoxicity against human UACC62 cells assessed as growth inhibition at 10 uM; settings: UACC-62, read-out: GI
K562 = assay: Cytotoxicity against human K562 cells assessed as growth inhibition at 10 uM; settings: read-out: GI
CCRF-CEM = assay: Cytotoxicity against human CCRF-CEM cells assessed as growth inhibition at 10 uM; settings: read-out: GI
MDA-MB-231 [3] = assay: Cytotoxicity against human MDA-MB-231 cells assessed as growth inhibition at 10 uM; settings: read-out: GI
[4] = Cytotoxicity against human OVCAR3 cells assessed as growth inhibition at 10 uM; settings: OVCAR-3, read-out: GI
786-0 = assay: Cytotoxicity against human 786-0 cells assessed as growth inhibition at 10 uM; settings: read-out: GI
SN12C = assay: Cytotoxicity against human SN12C cells assessed as growth inhibition at 10 uM; settings: read-out: GI
HL-60(TB) = assay: Cytotoxicity against human HL-60(TB) cells assessed as growth inhibition at 10 uM; settings: read-out: GI
SNB-19 = assay: Cytotoxicity against human SNB19 cells assessed as growth inhibition at 10 uM; settings: read-out: GI
MDA-MB-435 = assay: Cytotoxicity against human MDA-MB-435 cells assessed as growth inhibition at 10 uM; settings: read-out: GI
[5] = Cytotoxicity against human HCT15 cells assessed as growth inhibition at 10 uM; settings: HCT-15, read-out: GI
[6] = Cytotoxicity against human Hs578T cells assessed as growth inhibition at 10 uM; settings: Hs-578T, read-out: GI
KM12 = assay: Cytotoxicity against human KM12 cells assessed as growth inhibition at 10 uM; settings: read-out: GI
CAKI-1 = assay: Cytotoxicity against human CAKI-1 cells assessed as growth inhibition at 10 uM; settings: read-out: GI
PC-3 = assay: Cytotoxicity against human PC3 cells assessed as growth inhibition at 10 uM; settings: read-out: GI
HOP-62 = assay: Cytotoxicity against human HOP62 cells assessed as growth inhibition at 10 uM; settings: read-out: GI
Malme-3M = assay: Cytotoxicity against human MALME-3M cells assessed as growth inhibition at 10 uM; settings: read-out: GI
DU-145 = assay: Cytotoxicity against human DU145 cells assessed as growth inhibition at 10 uM; settings: read-out: GI
SW-620 = assay: Cytotoxicity against human SW620 cells assessed as growth inhibition at 10 uM; settings: read-out: GI
SF-539 = assay: Cytotoxicity against human SF539 cells assessed as growth inhibition at 10 uM; settings: read-out: GI
SK-MEL-28 = assay: Cytotoxicity against human SK-MEL-28 cells assessed as growth inhibition at 10 uM; settings: read-out: GI
A549 = assay: Cytotoxicity against human A549 cells assessed as growth inhibition at 10 uM; settings: read-out: GI
NCI-H460 = assay: Cytotoxicity against human NCI-H460 cells assessed as growth inhibition at 10 uM; settings: read-out: GI
[7] = Cytotoxicity against human UACC257 cells assessed as growth inhibition at 10 uM; settings: UACC-257, read-out: GI
T47D = assay: Cytotoxicity against human T47D cells assessed as growth inhibition at 10 uM; settings: read-out: GI
SK-MEL-2 = assay: Cytotoxicity against human SK-MEL-2 cells assessed as growth inhibition at 10 uM; settings: read-out: GI
MCF7 = assay: Cytotoxicity against human MCF7 cells assessed as growth inhibition at 10 uM; settings: read-out: GI
RXF 393 = assay: Cytotoxicity against human RXF393 cells assessed as growth inhibition at 10 uM; settings: read-out: GI
[8] = Cytotoxicity against human EKVX cells assessed as growth inhibition at 10 uM; settings: read-out: GI
LOX IMVI = assay: Cytotoxicity against human LOXIMVI cells assessed as growth inhibition at 10 uM; settings: read-out: GI
NCI-H226 = assay: Cytotoxicity against human NCI-H226 cells assessed as growth inhibition at 10 uM; settings: read-out: GI
MDA-MB-231 [9] = assay: Antiinvasive activity against human MDA-MB-231 cells assessed as inhibition of cell invasion at 15 uM after 24 hrs by BME Cell invasion assay kit; settings: MDA-MB-231, 24 h
[10] = Cytotoxicity against human UO31 cells assessed as growth inhibition at 10 uM; settings: UO-31, read-out: GI
SNB-75 = assay: Cytotoxicity against human SNB75 cells assessed as growth inhibition at 10 uM; settings: read-out: GI
NCI-H522 = assay: Cytotoxicity against human NCI-H522 cells assessed as growth inhibition at 10 uM; settings: read-out: GI
SK-OV-3 = assay: Cytotoxicity against human SKOV3 cells assessed as growth inhibition at 10 uM; settings: read-out: GI
NCI-H322M = assay: Cytotoxicity against human NCI-H322M cells assessed as growth inhibition at 10 uM; settings: read-out: GI
[11] = Cytotoxicity against human OVCAR5 cells assessed as growth inhibition at 10 uM; settings: OVCAR-5, read-out: GI
SF-295 = assay: Cytotoxicity against human SF295 cells assessed as growth inhibition at 10 uM; settings: read-out: GI
SR = assay: Cytotoxicity against human SR cells assessed as growth inhibition at 10 uM; settings: read-out: GI

C=C(C)[C@H]1O[C@H]2CC[C@@]3(C)[C@@](O)(CC[C@H]4[C@@H]5OC(C)(C)[C@H]6C[C@@H]7C(=C)Cc8c(Cl)cc9[nH]c(c5c9c8[C@@]76O)[C@@]43C)[C@@]23O[C@H]3[C@H]1O [PENITREM A]
inhibition of growth at 10 µM (TK-10): 98.6%
inhibition of growth at 10 µM (ACHN): 75.2%
inhibition of growth at 10 µM [1]: 83.2%
inhibition of growth at 10 µM (COLO 205): 91.3%
inhibition of growth at 10 µM (BT-549): 98.2%
inhibition of growth at 10 µM (HCC 2998): 77%
inhibition of growth at 10 µM (M14): 62.6%
inhibition of growth at 10 µM (HCT-116): 67.4%
inhibition of growth at 10 µM (IGROV-1): 74.9%
inhibition of growth at 10 µM (SK-MEL-5): 68.3%
inhibition of growth at 10 µM (MDA-MB-468): 69.6%
inhibition of growth at 10 µM (U-251): 85.1%
inhibition of growth at 10 µM (NCI-H23): 88.6%
inhibition of growth at 10 µM (SF-268): 71%
inhibition of growth at 10 µM (MOLT-4): 53.2%
inhibition of growth at 10 µM (HT-29): 86.9%
inhibition of growth at 10 µM [2]: 74.9%
inhibition of growth at 10 µM (K562): 66.1%
inhibition of growth at 10 µM (CCRF-CEM): 57.2%
inhibition of growth at 10 µM (MDA-MB-231 [3]): 97.5%
inhibition of growth at 10 µM [4]: 92.6%
inhibition of growth at 10 µM (786-0): 93.1%
inhibition of growth at 10 µM (SN12C): 73.3%
inhibition of growth at 10 µM (HL-60(TB)): 74.7%
inhibition of growth at 10 µM (SNB-19): 67.7%
inhibition of growth at 10 µM (MDA-MB-435): 52.9%
inhibition of growth at 10 µM [5]: 78.7%
inhibition of growth at 10 µM [6]: 94%
inhibition of growth at 10 µM (KM12): 71.5%
inhibition of growth at 10 µM (CAKI-1): 35.5%
inhibition of growth at 10 µM (PC-3): 39.3%
inhibition of growth at 10 µM (HOP-62): 107%
inhibition of growth at 10 µM (Malme-3M): 43.2%
inhibition of growth at 10 µM (DU-145): 85.5%
inhibition of growth at 10 µM (SW-620): 93.3%
inhibition of growth at 10 µM (SF-539): 89%
inhibition of growth at 10 µM (SK-MEL-28): 83.4%
inhibition of growth at 10 µM (A549): 73.7%
inhibition of growth at 10 µM (NCI-H460): 85.5%
inhibition of growth at 10 µM [7]: 76.2%
inhibition of growth at 10 µM (T47D): 73.9%
inhibition of growth at 10 µM (SK-MEL-2): 95.1%
inhibition of growth at 10 µM (MCF7): 55.8%
inhibition of growth at 10 µM (RXF 393): 76.5%
inhibition of growth at 10 µM [8]: 76.3%
inhibition of growth at 10 µM (LOX IMVI): 79.4%
inhibition of growth at 10 µM (NCI-H226): 76.8%
inhibition at 15 µM (MDA-MB-231 [9]): > 75%
inhibition of growth at 10 µM [10]: 41%
inhibition of growth at 10 µM (SNB-75): 53.7%
inhibition of growth at 10 µM (NCI-H522): 77.1%
inhibition of growth at 10 µM (SK-OV-3): 109%
inhibition of growth at 10 µM (NCI-H322M): 65.2%
inhibition of growth at 10 µM [11]: 105%
inhibition of growth at 10 µM (SF-295): 57.1%
inhibition of growth at 10 µM (SR): 46%

From ChEMBL document CHEMBL3217526, “Bioguided discovery and pharmacophore modeling of the mycotoxic indole diterpene alkaloids penitrems as breast cancer proliferation, migration, and invasion inhibitors” (Medchemcomm, 2013)
